Values of other authors as cited in patent US11077086B2, “Solid dosage form composition for buccal or sublingual administration of cannabinoids” (PHARMACEUTICAL PRODUCTIONS, INC., priority 2014, dated 2021).

Tested on: cannabinoid receptor

## C=C(C)[C@@H]1CCC(C)=C[C@H]1c1c(O)cc(CCCCC)cc1O [cannabidiol (CBD), cannabidiol]
  affinity for the cannabinoid receptor: do not have significant affinity
